We go through 5 compounds from patent EP4527843A1, “STEREOISOMERIC PHOSPHATIDYLOLIGOGLYCEROL” (Thermosome GmbH, priority 2023, dated 2025).

Like-named read-outs stand apart in the source and are kept apart here.

One series has as its target T1, Phospholipase A2 (Sus scrofa, UniProt P00592).
T1 construct: commercially available enzyme (extracted from porcine pancreas) was used; purchased; host or cells: porcine pancreas (tissue extract)
The series can be described thus: Stereospecific cleavage of DPPG2 with Phospholipase A2 (HPLC/CAD). It is filed as in vitro ADME, porcine. Conditions: 0.5 U enzyme; for DPPG2 still detectable in the sample: after 10 min, 2 µmol lipid, Tris-buffer pH 8.5 with CaCl2, 37°C, normalized to t=0 min. The method, then:
Phospholipases are enzymes that selectively cleave bonds in glycerophospholipids based on their stereochemistry. They play a role in the metabolization of glycerophospholipids in vivo. Phospholipase A2 hydrolyzes 1,2-acyl-sn-glycero-3-phospholipids to their 1-acyl-sn-glycero-3-phospholipid and the corresponding fatty acid. For the experiments, commercially available enzyme (extracted from porcine pancreas) was used. Lipid samples (2 µmol) were dissolved 1.5 wt% deoxycholate and subsequently incubated in Tris-buffer pH 8.5 supplemented with CaCl2 together with 0.5 U enzyme in a thermoshaker at 37°C. At distinct time points, samples were taken and cleavage was analyzed by HPLC. […] The analytes are separated using a gradient elution using 100 mM NH4Ac pH 6.0 in water and methanol as eluent A and eluent B, respectively. Column oven was set to 35°C.
Three DPPG2 batches differing in configurations of the stereogenic centers in their diglycerol headgroup were tested and DPPC was applied as control glycerophospholipid (Figure 2). […] After 10 min, 14.8%, 20.4%, and 24.3% of DPPG2 according to WO 9730058, WO 2014/202680 A1, and Formula III, respectively, was still detectable in the sample.

Series [1] has as its system BN175 tumors (soft tissue sarcoma). The series can be described thus: Accumulation of DOX in tumor tissue and organs, rat BN175 sarcoma model. The format is in vivo, Brown Norway rats.
Procedure: (§1) Eighteen anaesthetized tumor-bearing male Brown Norway rats (-300 g) received a dose of 2 mg/kg DOX of either non-liposomal DOX (n = 6), DPPG2-TSL-DOX (DPPG2 according to formula III) (n = 6), or DPPG2-TSL-DOX (DPPG2 according to WO 97/30059) (n = 6) as i.v. bolus injection, respectively. All animals had two BN175 tumors (soft tissue sarcoma) subcutaneously implanted to each hind leg, respectively. One tumor received 60 min of a local HT treatment with a light source of 41.5°C, whereas the second tumor remained untreated (room temperature, NT). […] Animals were sacrificed after 60 min, organs were perfused, and tumors and organs were collected. DOX content was measured in plasma by HPLC equipped with a fluorescence detector.
Assay in series [2]: as above
Procedure: as §1
It is filed as in vivo, Brown Norway rats. The note with it: male, Brown Norway, rat, 60 min after i.v. bolus 2 mg/kg DOX.

In series [3] the test system is BN175 tumor (soft tissue sarcoma). The note with it: 2 mg/kg DOX single i.v. bolus in combination with 60 min lamp HT (41°C); ranking in words.
Procedure: Finally, the therapeutic efficacy of both DPPG2-TSL-DOX formulations was investigated in vivo and compared to selected clinically relevant DOX formulations (e.g., non-liposomal DOX, Caelyx). […] All animals had one BN175 tumor (soft tissue sarcoma) s.c. implanted to one hind leg. Local HT treatment was performed with a light source. Target temperature was 41 °C. Animals were preheated to this temperature for 30 min and temperature was maintained at 41 °C for 60 min after i.v. bolus injection. Animals treated with a DOX formulation received 2 mg/kg DOX as single i.v. bolus injection after one tumor diameter was > 5 mm. After the end of the treatment, animals were placed back into a cage and tumor growth was monitored every 2nd day until reaching an end point (e.g., tumor diameter > 3 cm, exulzeration, bleeding, skin toxicity).
Series [4] is described as follows: PK study in healthy rats after i.v. bolus, normothermia. It is filed as in vivo, Brown Norway rats. The note with it: 2 mg/kg DOX i.v. bolus, rat; result in words. As to the method: For the PK study, 18 anaesthetized healthy male Brown Norway rats (-300 g) received a dose of 2 mg/kg DOX of either non-liposomal DOX (n = 6), DPPG2-TSL-DOX (DPPG2 according to formula III) (n = 6), or DPPG2-TSL-DOX (DPPG2 according to WO 97/30059) (n = 6) as i.v. bolus injection, respectively. Body temperature of the animals was controlled via a rectal temperature probe. During anesthesia, the body temperature of animals was maintained by a water bath (37°C). Blood samples were taken at defined time points. DOX and DPPG2 content were measured in plasma by HPLC equipped with a fluorescence detector and LC/MS, respectively.

T1 sequence (P00592 23-146): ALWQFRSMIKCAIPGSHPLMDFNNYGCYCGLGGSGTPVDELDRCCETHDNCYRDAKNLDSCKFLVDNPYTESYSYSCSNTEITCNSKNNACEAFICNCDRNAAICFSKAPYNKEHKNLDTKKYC

For the compound `CCCCCCCCCCCCCCCC(=O)OC[C@H](COP(=O)(O)OCC(O)COCC(O)CO)OC(=O)CCCCCCCCCCCCCCC` (mixture of isomers) [DPPG2 according to WO 9730058, 1,2-Dipalmitoyl-sn-glycero-3-phospho-rac-diglycerol], at Phospholipase A2, the “DPPG2 still detectable in the sample” value is 14.8%.

Consider `CCCCCCCCCCCCCCCC(=O)OC[C@H](COP(=O)([O-])OCC[N+](C)(C)C)OC(=O)CCCCCCCCCCCCCCC` [DPPC, 1,2-dipalmitoyl-sn-glycero-3-phosphocholine], for which the “cleavage by phospholipase A2 compared with DPPG2” value on Phospholipase A2 (control glycerophospholipid, 37°C) is “cleaved notably slower than DPPG2”.

In the case of `CCCCCCCCCCCCCCCC(=O)OC[C@H](COP(=O)(O)OC[C@@H](O)COC[C@H](O)CO)OC(=O)CCCCCCCCCCCCCCC` [DPPG2 according to Formula III, 1,2-dipalmitoyl-sn-glycero-3-phospho-sn-1'-glycero-sn-3"-glycerol], the “DPPG2 still detectable in the sample” value on Phospholipase A2 was 24.3%.

`CCCCCCCCCCCCCCCC(=O)OC[C@H](COP(=O)(O)OC[C@@H](O)COCC(O)CO)OC(=O)CCCCCCCCCCCCCCC` (stereo partly shown) [DPPG2 according to WO 2014/202680 A1, 1,2-Dipalmitoyl-sn-glycero-3-phospho-sn-1'-diglycerol]: the “DPPG2 still detectable in the sample” value on Phospholipase A2 was determined as 20.4%.

Take `COc1cccc2c1C(=O)c1c(O)c3c(c(O)c1C2=O)C[C@@](O)(C(=O)CO)C[C@@H]3O[C@H]1C[C@H](N)[C@H](O)[C@H](C)O1` [non-liposomal DOX, doxorubicin]: the “DOX accumulation in lung and heart compared to both DPPG2-TSL-DOX formulations” value in series [1] (60 min after i.v. bolus 2 mg/kg DOX, result in words) is listed as “significantly higher”. Moreover, the “increase of DOX tumor accumulation by HT application (compared to the content in the untreated tumors)” value in series [1] (60 min local HT 41.5°C light source vs untreated tumor, 2 mg/kg DOX i.v.) was 1.6 fold. In addition, the concentration at 60 min in series [2] (heated BN175 tumor (HT 41.5°C), iv, HT 41.5°C, read-out: DOX concentration in the heated tumors) is 3100 ± 500 ng/g; in series [2] (untreated BN175 tumor (NT, iv), NT, room temperature, read-out: DOX concentration in the untreated tumors), 1900 ± 300 ng/g. In series [3], the “survival (Kaplan-Meier, 5-fold increase in tumor volume) / therapeutic efficacy” value is “comparable”. Besides, the DOX plasma clearance entry in series [4] is “cleared within minutes”.
